In patent US6358885B1, “Substituted phenylheterocyclic herbicides” (Mississippi State University, priority 1992, dated 2002):

How the values were obtained:
[1] = tested on: barnyardgrass; assay: Test B preemergence/postemergence greenhouse plant response rating 0 to 10; assay type: in vivo, Echinochloa crus-galli; conditions: 0 to 10 scale
In short: (§1)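 Test chemicals, dissolved in a non-phytotoxic solvent, were applied to soil at planting and, at the same time, over foliage of seedlings at the one to four leaf stage.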

[2] = tested on: giant foxtail; assay: as above; assay type: in vivo, Setaria faberii; conditions: 0 to 10 scale
In short: as §1

[3] = tested on: lambsquarters; assay: as above; assay type: in vivo, Chenopodium album; conditions: 0 to 10 scale
In short: as §1

[4] = tested on: sugar beet; assay: as above; assay type: in vivo, Beta vulgaris; conditions: 0 to 10 scale
In short: as §1

[5] = tested on: velvetleaf; assay: as above; assay type: in vivo, Abutilon theophrasti; conditions: 0 to 10 scale
In short: as §1

[6] = tested on: cotton; assay: Test C preemergence/postemergence greenhouse plant response rating 0 to 100; assay type: in vivo, Gossypium hirsutum; conditions: POSTEMERGENCE
In short: (§2)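 Compounds in non-phytotoxic solvent applied preemergence to sandy loam one day after planting, postemergence at the 1–4 leaf stage, or to ~2.5 cm floodwater over silt loam.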

[7] = tested on: crabgrass; assay: as above; assay type: in vivo, Digitaria sanguinalis; conditions: POSTEMERGENCE
In short: as §2

[8] = tested on: pigweed; assay: as above; assay type: in vivo, Amaranthusretroflexus; conditions: POSTEMERGENCE
In short: as §2

[9] = tested on: sorghum; assay: as above; assay type: in vivo, Sorghum bicolor; conditions: POSTEMERGENCE
In short: as §2

[10] = tested on: velvetleaf; assay: as above; assay type: in vivo, Abutilon theophrasti; conditions: POSTEMERGENCE
In short: as §2

[11] = tested on: wild oat; assay: as above; assay type: in vivo, Avena fatua; conditions: POSTEMERGENCE
In short: as §2

[12] = tested on: rice; assay: Test C flood test plant response rating 0 to 100; assay type: in vivo, Oryza sativa
In short: as §2

[13] = tested on: alfalfa; assay: Test G preemergence/postemergence greenhouse plant response rating 0 to 100; assay type: in vivo, Medicago ativa; conditions: 0 to 100 scale
In short: (§3)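 Pre- and postemergence treatments used compound in non-phytotoxic solvent on potted greenhouse plants grown from seed, rhizome or plant part. Postemergence plants were at the 2–4 leaf stage; damage was assessed by eye versus untreated pots after 13–21 days.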

[14] = tested on: purple nutsedge; assay: as above; assay type: in vivo, Cyperus rotundus; conditions: Rate 125 g/ha, 0 to 100 scale
In short: as §3

C=CCN1C(=O)COc2cc(F)c(-c3nn4c(c3Cl)CCCC4)cc21 [Compound 33]
Plant response rating, Barnyardgrass ([1]; POSTEMERGENCE, Rate 10 g/ha): 4 | Plant response rating, Barnyardgrass ([1]; POSTEMERGENCE, Rate 50 g/ha): 7 | Plant response rating, Barnyardgrass ([1]; PREEMERGENCE, Rate 10 g/ha): 2 | Plant response rating, Barnyardgrass ([1]; PREEMERGENCE, Rate 50 g/ha): 3 | Plant response rating, Giant foxtail ([2]; POSTEMERGENCE, Rate 10 g/ha): 4 | Plant response rating, Giant foxtail ([2]; POSTEMERGENCE, Rate 50 g/ha): 4 | Plant response rating, Giant foxtail ([2]; PREEMERGENCE, Rate 10 g/ha): 2 | Plant response rating, Giant foxtail ([2]; PREEMERGENCE, Rate 50 g/ha): 7 | Plant response rating, Lambsquarter ([3]; POSTEMERGENCE, Rate 10 g/ha): 9 | Plant response rating, Lambsquarter ([3]; POSTEMERGENCE, Rate 50 g/ha): 10 | Plant response rating, Lambsquarter ([3]; PREEMERGENCE, Rate 50 g/ha): 10 | Plant response rating, Sugar beet ([4]; POSTEMERGENCE, Rate 10 g/ha): 10 | Plant response rating, Sugar beet ([4]; POSTEMERGENCE, Rate 50 g/ha): 10 | Plant response rating, Sugar beet ([4]; PREEMERGENCE, Rate 50 g/ha): 10 | Plant response rating, Velvetleaf ([5]; POSTEMERGENCE, Rate 10 g/ha): 10 | Plant response rating, Velvetleaf ([5]; POSTEMERGENCE, Rate 50 g/ha): 9 | Plant response rating, Velvetleaf ([5]; PREEMERGENCE, Rate 50 g/ha): 9 | Plant response rating, Cotton ([6]; 62 g/ha, 0 to 100 scale): 100 | Plant response rating (0 to 100), Cotton ([6]; Rate 1 g/ha): 100 | Plant response rating (0 to 100), Cotton ([6]; Rate 4 g/ha): 100 | Plant response rating (0 to 100), Cotton ([6]; Rate 16 g/ha): 100 | Plant response rating, Crabgrass ([7]; 62 g/ha, 0 to 100 scale): 20 | Plant response rating (0 to 100), Crabgrass ([7]; Rate 1 g/ha): 0 | Plant response rating (0 to 100), Crabgrass ([7]; Rate 4 g/ha): 0 | Plant response rating (0 to 100), Crabgrass ([7]; Rate 16 g/ha): 0 | Plant response rating Pigweed ([8]; 62 g/ha, 0 to 100 scale): 100 | Plant response rating (0 to 100), Pigweed ([8]; Rate 1 g/ha): 100 | Plant response rating (0 to 100), Pigweed ([8]; Rate 4 g/ha): 100 | Plant response rating (0 to 100), Pigweed ([8]; Rate 16 g/ha): 100 | Plant response rating, Sorghum ([9]; 62 g/ha, 0 to 100 scale): 40 | Plant response rating (0 to 100), Sorghum ([9]; Rate 1 g/ha): 0 | Plant response rating (0 to 100), Sorghum ([9]; Rate 4 g/ha): 20 | Plant response rating (0 to 100), Sorghum ([9]; Rate 16 g/ha): 20 | Plant response rating, Velvetleaf ([10]; 62 g/ha, 0 to 100 scale): 100 | Plant response rating (0 to 100), Velvetleaf ([10]; Rate 1 g/ha): 70 | Plant response rating (0 to 100), Velvetleaf ([10]; Rate 4 g/ha): 100 | Plant response rating (0 to 100), Velvetleaf ([10]; Rate 16 g/ha): 100 | Plant response rating, Wild oat ([11]; 62 g/ha, 0 to 100 scale): 60 | Plant response rating (0 to 100), Wild oat ([11]; Rate 1 g/ha): 30 | Plant response rating (0 to 100), Wild oat ([11]; Rate 4 g/ha): 40 | Plant response rating (0 to 100), Wild oat ([11]; Rate 16 g/ha): 50 | Plant response rating (0 to 100), Rice Japonica ([12]; POSTEMERGENCE section, flood test, Rate 1 g/ha): 20 | Plant response rating (0 to 100), Rice Japonica ([12]; POSTEMERGENCE section, flood test, Rate 4 g/ha): 50 | Plant response rating (0 to 100), Rice Japonica ([12]; Rate 16 g/ha, under POSTEMERGENCE head (flood test species)): 60 | Plant response rating Rice Japonica ([12]; flood test species listed under POSTEMERGENCE, 62 g/ha, 0 to 100 scale): 85 | Plant response rating, Alfalfa Var. ([13]; POSTEMERGENCE, Rate 125 g/ha): 0 | Plant response rating, Alfalfa Var. ([13]; POSTEMERGENCE, Rate 250 g/ha): 0 | Plant response rating, Alfalfa Var. ([13]; PREEMERGENCE, Rate 125 g/ha): 0 | Plant response rating, Alfalfa Var. ([13]; PREEMERGENCE, Rate 250 g/ha): 0 | Plant response rating, Purple Nutsedge ([14]; POSTEMERGENCE): 10 | Plant response rating, Purple Nutsedge ([14]; PREEMERGENCE): 0
